{"source": "patent US8394398B2", "about": "(Abbott Laboratories, priority 1997, dated 2013)", "tested_on": "human coronary artery smooth muscle cells (hCaSMC)", "test": "3H-thymidine uptake proliferation assay, hCaSMC", "format": "cell-based", "details": "Homo sapiens, 3 h; read-out: hCaSMC IC50 Mean ± SEM", "method": "Experiments were performed to investigate interactions between zotarolimus and the corticosteroid dexamethasone. The effect of dexamethasone on the antiproliferative activity of zotarolimus in human coronary artery smooth muscle ([…]) and endothelial […] determined using an in vitro proliferation assay. The proliferation and migration of vascular smooth muscle cells into the vascular neointima is a characteristic pathologic response seen in restenotic lesions (A. Lafont and P. Libby, The smooth muscle cell: sinner or saint in restenosis and the acute coronary syndromes? […] As a result, in vitro assays which specifically measure the antiproliferative activity of candidate anti-restenotic compounds on human coronary artery smooth muscle and endothelial cells should predict potential anti-restenotic activity in vivo. The tritium incorporation assay is an accurate and sensitive method used in the art to determine cell number and proliferation. Compounds or combinations of compounds which attenuate growth factor-mediated human coronary artery smooth muscle cell […]) proliferation, as measured by the tritium incorporation assay in vitro, are candidate anti-restenotic agents. […] Cell proliferation was monitored by following incorporation of ^3H-thymidine into newly synthesized DNA of cells stimulated by serum and growth factors. Exponentially growing […] were seeded into 96-well flat bottom tissue culture plates at 5,000 cells/well (10,000 cells/well for […]). The cells were allowed to attach overnight. The growth medium was removed the following day and cells were washed twice with unsupplemented (basal) medium to remove traces of serum and growth factors. Basal medium (200 μl) was added to each well and the cells incubated in medium lacking growth factors and serum to starve and synchronize them in the G0 state. After starvation (48 hours for […] and 39 hours for […]) in medium lacking serum and growth factors, the cells were replenished with 200 μl supplemented medium in the absence or presence of drugs at the desired concentrations. […] After a 72-hour incubation period, 25 μl (1 μCi/well) of ^3H-thymidine (Amersham Biosciences) were added to each well. The cells were incubated at 37° C. for 16-18 hours to allow incorporation of ^3H-thymidine into newly synthesized DNA and the cells harvested onto 96-well plates containing bonded glass fiber filters using a cell harvester (Harvester 9600, TOMTEC). […] Controls included medium only, starved cells and cells in complete medium. Drug activity was established by determining the inhibition of ^3H-thymidine incorporation into newly synthesized DNA relative to cells grown in complete medium. […] The final IC50s are means of the 3-4 experiments. In these experiments, the x-axis represents the concentration of the drug being varied. For most of these curves that is zotarolimus alone and in combination with a fixed concentration of dexamethasone. Each graph contains a dexamethasone alone curve and a zotarolimus alone curve. The set of curves in each graph is generated by adding dexamethasone at a fixed concentration (1, 5, 10 or 25 nM) to various concentrations of zotarolimus (0, 0.04, 0.08, 0.8, 4, 8, 40 nM). Each curve represents the dose-response of zotarolimus (whose concentration is given on the x-axis) in the presence of the fixed concentration of dexamethasone given in the legend). […] The concentration eliciting a specific antiproliferative effect was determined using a 4-parameter equation (Equation 1). […]"}
{"smiles": "CO[C@H]1C[C@@H]2CC[C@@H](C)[C@@](O)(O2)C(=O)C(=O)N2CCCC[C@H]2C(=O)O[C@H]([C@H](C)C[C@@H]2CC[C@H](n3cnnn3)[C@H](OC)C2)CC(=O)[C@H](C)/C=C(\\C)[C@@H](O)[C@@H](OC)C(=O)[C@H](C)C[C@H](C)/C=C/C=C/C=C/1C", "note": "[zotarolimus]", "values": [{"measurement": "IC50", "result": "6.2 ± 1.2", "unit": "nM"}]}
